Assay results published in article PMC7756666, “Non‐Stationary Complementary Non‐Uniform Sampling (NOSCO NUS) for Fast Acquisition of Serial 2D NMR Titration Data” (Angewandte Chemie (International Ed. in English), 2020).
Ends that are not written are not given here.

Target: T1, SH3 domain of α‐spectrin (Gallus gallus, UniProt P07751)
T1 construct: SH3 domain of α‐spectrin, has 60 residues
Test: NMR titration (2D 1H-15N HSQC), p41 binding by SH3
Conditions: system as introduced in text; pH 3.5; 8 ligand-to-protein ratios; no spread given; read-out: KD (dissociation constant)
Text: The critical information on molecular dissociation constants, K D, and chemical shift perturbation (CSP) amplitudes, Δv, can be derived by individually fitting the correlated signal frequencies, observed in the 2D protein NMR spectra of a titration series, to the equation [Eq. 1]:(1) νI=νI,0+f(x,KD)·ΔνI
where [Eq. 2](2) f(x,KD)=KD+(1+x)cP-(KD+(1+x)cP)^2-4cP2x/2cP
v I is the observed chemical shift (I=^15N or^1H ), v I,0 is the pertaining reference chemical shift in the absence of ligand; Δv I is the maximal CSP amplitude due to ligand binding; x=c L/ c P is the ligand to protein molar ratio; c P is the total protein concentration.
NMR frequency sampling in an indirect time dimension is a lengthy process (fundamental reasons described in SI). Here we propose a method for complementary non‐uniform sampling (NUS) of entire titration series of 2D ^1H‐^15N HSQC spectra within less time even than required for a single conventional spectrum. For this we sample the indirect t 1(^15N) dimension as in a standard NUS experiment, yet with complementary sampling schedules for the different titration points such that each ligand‐to‐protein ratio, x, is sampled for a unique set of t 1 times (Figure 1). A full grid of 256 t 1 increments in a titration series with 8 different x ratios would, thus, be sampled in 8 complementary schedules of 32 points. […]

T1 sequence (P07751 967-1026 limits assumed): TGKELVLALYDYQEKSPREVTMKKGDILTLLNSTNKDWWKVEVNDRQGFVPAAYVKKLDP

Q: APSYSPPPPP [p41] was tested. Which Kd did it give?
A: 9 mM
